Among the data in patent US8999957B2, “Heterocyclic compounds as ERK inhibitors” (Merck Sharp & Dohme Corp., priority 2010, dated 2015) are IC50 values, retold here.

The structures appear in SMILES notation. pIC50: −log10 of the molar value. Where “and” joins values, the source holds several entries; their conditions need not be identical. Identical values can stand only once. Like-named read-outs stand apart in the source and are kept apart here.

The assay concerns the target fully phosphorylated, mouse aERK2 enzyme (Mus musculus (Mouse), UniProt P63085). The assay can be described thus: Active ERK2 (aERK) IMAP-FP assay, condition 2. Format: biochemical. How it is done: Active ERK2 (aERK) Assay: (Unless Indicated Otherwise, the Data Provided for aERK was obtained using Condition 1)
Activated ERK2 activity was determined in an IMAP-FP assay (Molecular Devices). […] Phosphorylation reactions were allowed to proceed for 40-45 minutes and were immediately quenched by the addition of 60 μL IMAP detection beads (1:1000 dilutions) in IMAP binding buffer. Plates were read on EnVision reader after 30 minutes binding equilibration.

Where [1] appears, read: active ERK2, read-out: aErk2 Ic50.
The mark [2] stands for this setting: aERK assay condition 2, 30 uM ATP, read-out: aERK IC50.

Sequence of fully phosphorylated, mouse aERK2 enzyme (P63085 whole entry): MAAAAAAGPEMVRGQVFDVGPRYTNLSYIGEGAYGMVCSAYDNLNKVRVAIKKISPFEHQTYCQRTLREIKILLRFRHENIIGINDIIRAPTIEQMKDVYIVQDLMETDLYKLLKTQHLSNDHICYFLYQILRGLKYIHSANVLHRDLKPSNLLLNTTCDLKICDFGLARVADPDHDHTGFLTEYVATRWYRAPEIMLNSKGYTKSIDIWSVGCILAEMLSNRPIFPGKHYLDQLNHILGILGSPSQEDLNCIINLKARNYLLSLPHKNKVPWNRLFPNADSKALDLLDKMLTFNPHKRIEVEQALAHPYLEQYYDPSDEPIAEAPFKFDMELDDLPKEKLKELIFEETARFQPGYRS

As for `CCN(CC)C(=O)[C@@H]1CC[C@@H](NC(=O)c2ccc3[nH]nc(-c4ccncc4)c3c2)CN1Cc1c(F)cccc1OC` [N-[(3R,6S)-6-(diethylcarbamoyl)-1-(2-fluoro-6-methoxybenzyl)piperidin-3-yl]-3-pyridin-4-yl-1H-indazole-5-carboxamide], the pIC50 under setting [1] is 7.74.

As to `COc1cccc(F)c1CN1C[C@@H](NC(=O)c2ccc3[nH]nc(-c4ccnc(C)c4)c3c2)CC[C@@H]1C(=O)N1CC(O[Si](C)(C)C(C)(C)C)CO1` (stereo in doubt) [N-[(3S,6R)-6-[(4-{[tert-butyl(dimethyl)silyl]oxy}isoxazolidin-2-yl)carbonyl]-1-(2-fluoro-6-methoxybenzyl)-piperidin-3-yl]-3-(2-methylpyridin-4-yl)-1H-indazole-5-carboxamide], the pIC50 under setting [1] is 7.14 and 6.84.

For the molecule `COc1cccc(F)c1CN1C[C@H](NC(=O)c2ccc3[nH]nc(-c4ccncc4)c3c2)CC[C@H]1C(=O)N1CCCC1` [N-[(3R,6S)-1-(2-fluoro-6-methoxybenzyl)-6-(pyrrolidin-1-ylcarbonyl)piperidin-3-yl]-3-pyridin-4-yl-1H-indazole-5-carboxamide], the pIC50 under setting [1] was 7.45.

On to `COc1cccc(F)c1CN1C[C@H](NC(=O)c2ccc3[nH]nc(-c4ccc5nn(C)cc5c4)c3c2)CC[C@H]1C(=O)N(C)C`, for which, under setting [1], the pIC50 is 7.80.

For the molecule `COc1cccc(F)c1CN1C[C@H](NC(=O)c2ccc3[nH]nc(-c4ccnc(C)c4)c3c2)CC[C@H]1C(=O)N1CC(C)(O)C1` [N-{(3R,6S)-1-(2-fluoro-6-methoxybenzyl)-6-[(3-hydroxy-3-methylazetidin-1-yl)carbonyl]piperidin-3-yl}-3-(2-methylpyridin-4-yl)-1H-indazole-5-carboxamide], under setting [2], the pIC50 is 8.96.

Take `CCN(CC)C(=O)[C@@H]1CC[C@@H](NC(=O)c2ccc3[nH]nc(-c4ccnc(C)c4)c3c2)CN1Cc1c(F)cccc1F` [N-[(3R,6S)-6-(diethylcarbamoyl)-1-(2,6-difluorobenzyl)piperidin-3-yl]-3-(2-methylpyridin-4-yl)-1H-indazole-5-carboxamide]: the negative-log IC50 (pIC50) under setting [1] is 7.09.

Take `COc1cccc(F)c1CN1C[C@H](NC(=O)c2ccc3[nH]nc(-c4ccnc(C)c4)c3c2)CC[C@H]1C(=O)N1CCN(C(=O)OC(C)C)CC1` [1-methylethyl 4-{[(2S,5R)-1-(2-fluoro-6-methoxybenzyl)-5-({[3-(2-methylpyridin-4-yl)-1H-indazol-5-yl]carbonyl}amino)piperidin-2-yl]carbonyl}piperazine-1-carboxylate]: the pIC50 under setting [1] is 7.72.

On to `COc1cccc(F)c1CN1C[C@H](NC(=O)c2ccc3[nH]nc(-c4ccnc(C)c4)c3c2)CC[C@H]1C(=O)NCCOCc1ccccc1` [N-[(3R,6S)-6-{[2-(benzyloxy)ethyl]-carbamoyl}-1-(2-fluoro-6-methoxybenzyl)-piperidin-3-yl]-3-(2-methylpyridin-4-yl)-1H-indazole-5-carboxamide], for which, under setting [1], the pIC50 was 6.92.

For `COc1cccc(F)c1CN1C[C@H](NC(=O)c2ccc3[nH]nc(-c4ccc5nc(C)sc5c4)c3c2)CC[C@H]1C(=O)N(C)C` [N-[(3R,6S)-6-(dimethylcarbamoyl)-1-(2-fluoro-6-methoxybenzyl)piperidin-3-yl]-3-(2-methyl-1,3-benzothiazol-6-yl)-1H-indazole-5-carboxamide], the pIC50 under setting [1] was 7.32.

Take `Cc1cc(-c2n[nH]c3ccc(C(=O)N[C@@H]4CC[C@@H](C(=O)N(C)C)N(Cc5c(F)cccc5F)C4)cc23)ccn1` [N-[(3R,6S)-1-(2,6-difluorobenzyl)-6-(dimethylcarbamoyl)piperidin-3-yl]-3-(2-methylpyridin-4-yl)-1H-indazole-5-carboxamide]: under setting [1], the negative-log IC50 (pIC50) is 7.13.

With `COc1cccc(F)c1CN1C[C@H](NC(=O)c2ccc3[nH]nc(-c4ccnc(C)c4)c3c2)CC[C@H]1C(=O)NC(C)C` [N-{(3R,6S)-1-(2-fluoro-6-methoxybenzyl)-6-[(1-methylethyl)carbamoyl]piperidin-3-yl}-3-(2-methylpyridin-4-yl)-1H-indazole-5-carboxamide], under setting [1], the negative-log IC50 (pIC50) was 7.33.

With `COc1cccc(F)c1CN1C[C@H](NC(=O)c2ccc3[nH]nc(-c4ccnc(C)c4)c3c2)CC[C@H]1C(=O)N1CCCO1` [N-[(3R,6S)-1-(2-fluoro-6-methoxybenzyl)-6-(isoxazolidin-2-ylcarbonyl)piperidin-3-yl]-3-(2-methylpyridin-4-yl)-1H-indazole-5-carboxamide], the pIC50 under setting [1] is 7.98.

Turning to `COc1cccc(F)c1CN1C[C@H](NC(=O)c2ccc3[nH]nc(-c4ccnc(C)c4)c3c2)CC[C@H]1C(=O)Nc1cccc(F)c1` [N-{(3R,6S)-1-(2-fluoro-6-methoxybenzyl)-6-[(3-fluorophenyl)carbamoyl]piperidin-3-yl}-3-(2-methylpyridin-4-yl)-1H-indazole-5-carboxamide], under setting [2], the negative logarithm of the IC50 (pIC50) is 7.82.

For the molecule `COc1cccc(F)c1CN1C[C@H](NC(=O)c2ccc3[nH]nc(-c4ccnc(C)c4)c3c2)CC[C@H]1C(=O)NCC1CC1` [N-[(3R,6S)-6-[(cyclopropylmethyl)carbamoyl]-1-(2-fluoro-6-methoxybenzyl)piperidin-3-yl]-3-(2-methylpyridin-4-yl)-1H-indazole-5-carboxamide], under setting [2], the pIC50 was 8.31.

Regarding `COc1cccc(F)c1CN1C[C@H](NC(=O)c2ccc3[nH]nc(-c4ccnc(C)c4)c3c2)CC[C@H]1C(=O)NCCCCl` [N-[(3R,6S)-6-[(3-chloropropyl)carbamoyl]-1-(2-fluoro-6-methoxybenzyl)piperidin-3-yl]-3-(2-methylpyridin-4-yl)-1H-indazole-5-carboxamide], under setting [1], the pIC50 was 7.93.

Turning to `CN(C)C(=O)C(c1c(F)cccc1F)N1CCC[C@@H](NC(=O)c2ccc3[nH]nc(-c4ccncc4)c3c2)C1` (single isomer, unassigned) [drawing 508, N-((R)-1-((S or R)-1-(2,6-difluorophenyl)-2-(dimethyl-amino)-2-oxoethyl)piperidin-3-yl)-3-(pyridin-4-yl)-1H-indazole-5-carboxamide], the negative-log IC50 (pIC50) under setting [2] was 6.94.

Turning to `COc1cccc(F)c1CN1C[C@H](NC(=O)c2ccc3[nH]nc(-c4ccnc(C)c4)c3c2)CC[C@H]1C(=O)N1CCN(C(C)=O)CC1` [N-[(3R,6S)-6-[(4-acetylpiperazin-1-yl)carbonyl]-1-(2-fluoro-6-methoxybenzyl)-piperidin-3-yl]-3-(2-methylpyridin-4-yl)-1H-indazole-5-carboxamide], the pIC50 under setting [1] is 7.72.

For the molecule `CCN(CC)C(=O)[C@@H]1CC[C@@H](NC(=O)c2ccc3[nH]nc(-c4ccnc(C)c4)c3c2)CN1Cc1ccccc1F` [N-[(3R,6S)-6-(diethylcarbamoyl)-1-(2-fluorobenzyl)piperidin-3-yl]-3-(2-methylpyridin-4-yl)-1H-indazole-5-carboxamide], under setting [1], the pIC50 is 7.70.

`COCCNC(=O)[C@@H]1CC[C@@H](NC(=O)c2ccc3[nH]nc(-c4ccnc(C)c4)c3c2)CN1Cc1c(F)cccc1OC` [N-{(3R,6S)-1-(2-fluoro-6-methoxybenzyl)-6-[(2-methoxyethyl)carbamoyl]piperidin-3-yl}-3-(2-methylpyridin-4-yl)-1H-indazole-5-carboxamide]: the negative logarithm of the IC50 (pIC50) under setting [1] was 7.25.

As to `CNC(=S)NNC(=O)[C@@H]1CC[C@@H](NC(=O)c2ccc3[nH]nc(-c4ccnc(C)c4)c3c2)CN1Cc1c(F)cccc1OC` [N-[(3R,6S)-1-(2-fluoro-6-methoxybenzyl)-6-{[2-(methylcarbamothioyl)hydrazino]-carbonyl}piperidin-3-yl]-3-(2-methylpyridin-4-yl)-1H-indazole-5-carboxamide], the negative logarithm of the IC50 (pIC50) under setting [1] was 9.00.

Consider `COc1cccc(F)c1CN1C[C@H](NC(=O)c2ccc3[nH]nc(-c4ccc5nn(C)cc5c4)c3c2)CC[C@H]1C(=O)N1CC(F)(F)C1`, for which the negative-log IC50 (pIC50) under setting [1] was 7.64.

Turning to `O=C(N[C@@H]1CC[C@@H](C(=O)NCc2ccccc2)N(Cc2ccccc2)C1)c1ccc2[nH]nc(-c3ccncc3)c2c1` [N-[(3R,6S)-1-benzyl-6-(benzylcarbamoyl)piperidin-3-yl]-3-pyridin-4-yl-1H-indazole-5-carboxamide], the negative-log IC50 (pIC50) under setting [1] was 7.32.

Regarding `COc1cccc(F)c1CN1C[C@H](NC(=O)c2ccc3[nH]nc(-c4ccnc(C)c4)c3c2)CC[C@H]1C(=O)NCC(F)(F)F` [N-{(3R,6S)-1-(2-fluoro-6-methoxybenzyl)-6-[(2,2,2-trifluoroethyl)carbamoyl]piperidin-3-yl}-3-(2-methylpyridin-4-yl)-1H-indazole-5-carboxamide], the negative-log IC50 (pIC50) under setting [1] was 7.33.

In the case of `COc1cccc(F)c1CN1C[C@H](NC(=O)c2ccc3[nH]nc(-c4ccnc(C)c4)c3c2)CC[C@H]1C(=O)N(C)CCCCNC(=O)OC(C)(C)C` [tert-butyl {4-[{[(2S,5R)-1-(2-fluoro-6-methoxybenzyl)-5-({[3-(2-methylpyridin-4-yl)-1H-indazol-5-yl]carbonyl}amino)piperidin-2-yl]carbonyl}(methyl)amino]butyl}carbamate], under setting [1], the pIC50 is 7.04.

For `[2H]C([2H])([2H])Oc1cccc(F)c1CN1C[C@H](NC(=O)c2ccc3[nH]nc(-c4ccc5nc(C)sc5c4)c3c2)CC[C@H]1C(N)=O`, under setting [1], the pIC50 was 8.47.

For the molecule `COc1cccc(F)c1CN1C[C@H](NC(=O)c2ccc3[nH]nc(-c4ccc5nc(C)sc5c4)c3c2)CC[C@H]1C(=O)N1CC(F)(F)C1` [N-[(3R,6S)-6-[(3,3-difluoroazetidin-1-yl)carbonyl]-1-(2-fluoro-6-methoxybenzyl)-piperidin-3-yl]-3-(2-methyl-1,3-benzothiazol-6-yl)-1H-indazole-5-carboxamide], the negative-log IC50 (pIC50) under setting [1] is 7.32.

Regarding `CCCN(C)C(=O)[C@@H]1CC[C@@H](NC(=O)c2ccc3[nH]nc(-c4ccnc(C)c4)c3c2)CN1Cc1c(F)cccc1OC` [N-{(3R,6S)-1-(2-fluoro-6-methoxybenzyl)-6-[methyl(propyl)carbamoyl]piperidin-3-yl}-3-(2-methylpyridin-4-yl)-1H-indazole-5-carboxamide], under setting [1], the pIC50 is 7.24.
